US20100120690A1, “Polypeptides Having Antimicrobial Activity and Polynucleotides Encoding Same” (Novozymes Adenium Biotech A/S, priority 2005, published 2010)

Assays:
Format in all cases: cell-based
[1] = test system: Staphylococcus carnosus ATCC51365; experiment: Yeast screening assay: radial diffusion assay of yeast supernatants; parameters: key: An activity of 3 is better than Plectasin; An activity of 2 corresponds to the activity of Plectasin; 1 is worse than Plectasin; details: yeast supernatant, clearing zone in radial diffusion assay
How it was run: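 Supernatants from S. cerevisiae expressing plectasin variants, grown 3 days at 30 °C in galactose medium, were applied to agarose containing 5×10^5 cfu/mL S. carnosus. Plates were incubated 3 h at 37 °C, overlaid, left overnight and MTT-stained. Clearing zones were scored as 2 = plectasin-like, 3 = better, 1 = worse.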

[2] = test system: panel of 6 different strains of Staphylococcus aureus; experiment: Average MIC, NCCLS/CLSI guidelines using caMHB (Example 6); details: average over 6 S. aureus strains, duplicate; MIC above 32 counted as 64; read after 18-24 hours at 37° C.
How it was run: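 MICs were determined by broth dilution per NCCLS/CLSI in caMHB against six S. aureus strains (four MSSA, two MRSA), with peptides at 0.03–32 microgram/mL, read after 18-24 h at 37° C. Each was tested in duplicate and the two results averaged; MICs above 32 micrograms/mL were counted as 64.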

[3] = test system: Staphylococcus aureus, ATCC 29213; experiment: MIC, NCCLS/CLSI guidelines (Example 5), strain A; details: relative to wildtype Plectasin; average of two independent experiments
Protocol: (§1) Plectasin wild-type (SEQ ID NO: 1) and several variants of Plectasin were expressed and purified. The Minimal Inhibitory Concentration (MIC) was determined to test for their antimicrobial activity following the NCCLS guidelines from CLSI (Clinical and Laboratory Standards Institute; formerly known as National Committee for Clinical and Laboratory Standards).
(§2) The peptides were tested against the following strains: • A: Staphylococcus aureus, ATCC 29213; • B: Staphylococcus aureus, ATCC 25923; • C: Staphylococcus aureus, ATCC 29737; • D: Staphylococcus aureus, MRSA ST5 (2001), multi-resistant clinical human isolate from Statens Serum Institut, Denmark; • E: Staphylococcus aureus, MRSA ST80 (2003), multi-resistant clinical human isolate from Statens Serum Institut, Denmark.
(§3) All MIC values represent an average of two independent experiments; and all results in Table 5 are expressed relative to wildtype Plectasin:
(§4) 0: >100% of Plectasin wildtype MIC; 1: 80-100% of Plectasin wildtype MIC; 2: 50-80% of Plectasin wildtype MIC; 3: <50% of Plectasin wildtype MIC.

[4] = test system: Staphylococcus aureus, MRSA ST5 (2001); experiment: MIC, NCCLS/CLSI guidelines (Example 5), strain D; details: relative to wildtype Plectasin; average of two independent experiments
Protocol: as §1, §2, §3, §4

[5] = test system: Staphylococcus aureus, ATCC 29737; experiment: MIC, NCCLS/CLSI guidelines (Example 5), strain C; details: relative to wildtype Plectasin; average of two independent experiments
Protocol: as §1, §2, §3, §4

[6] = test system: Staphylococcus aureus, MRSA ST80 (2003); experiment: MIC, NCCLS/CLSI guidelines (Example 5), strain E; details: relative to wildtype Plectasin; average of two independent experiments
Protocol: as §1, §2, §3, §4

[7] = test system: Staphylococcus aureus, ATCC 25923; experiment: MIC, NCCLS/CLSI guidelines (Example 5), strain B; details: relative to wildtype Plectasin; average of two independent experiments
Protocol: as §1, §2, §3, §4

Row | Substance | Activity (antimicrobial activity relative to the activity of plectasin) [1] | Average MIC [2] | Relative MIC, strain A [3] | Relative MIC, strain D [4] | Relative MIC, strain C [5] | Relative MIC, strain E [6] | Relative MIC, strain B [7]
1 | GFGCNGPWGEDDMRCHNHCKSIRGYKGGYCAKGGFVCKCY [D9G + Q14R + K23R] | 3 | 2 micrograms/mL | 3 (<50% of Plectasin wildtype MIC) | 3 (<50% of Plectasin wildtype MIC) | 3 (<50% of Plectasin wildtype MIC) | 3 (<50% of Plectasin wildtype MIC) | 3 (<50% of Plectasin wildtype MIC)
2 | GFGCNGPWDENDMQCHNHCKSIKGYKGGYCAKGGFVCKCY [Mutation D11N] | 3 | 6 micrograms/mL | 2 (50-80% of Plectasin wildtype MIC) | 2 (50-80% of Plectasin wildtype MIC) | 2 (50-80% of Plectasin wildtype MIC) | 3 (<50% of Plectasin wildtype MIC) | 3 (<50% of Plectasin wildtype MIC)
3 | GFGCNGPWDEDDMRCHNHCKSIKGYRGGYCAKGGFVCRCY [Q14R + K26R + K38R] | 3 | 2 micrograms/mL | 3 (<50% of Plectasin wildtype MIC) | 3 (<50% of Plectasin wildtype MIC) | 3 (<50% of Plectasin wildtype MIC) | 3 (<50% of Plectasin wildtype MIC) | 3 (<50% of Plectasin wildtype MIC)
4 | GFGCNGPWDEDDMRCHNHCKSIRGYRGGYCAKGGFVCKCY [Q14R + K23R + K26R] | 2 | 2 micrograms/mL | 3 (<50% of Plectasin wildtype MIC) | 3 (<50% of Plectasin wildtype MIC) | 3 (<50% of Plectasin wildtype MIC) | 3 (<50% of Plectasin wildtype MIC) | 3 (<50% of Plectasin wildtype MIC)
5 | GFGCKGPWDEDDMQCHNHCKSIKGYRGGYCAKGGFVCKCY [N5K + K26R] | 3 | 9 micrograms/mL | 1 (80-100% of Plectasin wildtype MIC) | 2 (50-80% of Plectasin wildtype MIC) | 3 (<50% of Plectasin wildtype MIC) | 2 (50-80% of Plectasin wildtype MIC) | 2 (50-80% of Plectasin wildtype MIC)
6 | D9A + K38R: variant of Plectasin (SEQ ID NO: 1) (GFGCNGPWAEDDMQCHNHCKSIKGYKGGYCAKGGFVCRCY) |  | 4 micrograms/mL | 3 (<50% of Plectasin wildtype MIC) | 3 (<50% of Plectasin wildtype MIC) | 3 (<50% of Plectasin wildtype MIC) | 3 (<50% of Plectasin wildtype MIC) | 3 (<50% of Plectasin wildtype MIC)
7 | GFGCSGPWDEDDMRCHNHCKAIRGYKGGYCAKGGFVCKCY [N5S + Q14R + S21A + K23R] | 3 | 9 micrograms/mL | 1 (80-100% of Plectasin wildtype MIC) | 2 (50-80% of Plectasin wildtype MIC) | 2 (50-80% of Plectasin wildtype MIC) | 0 (>100% of Plectasin wildtype MIC) | 3 (<50% of Plectasin wildtype MIC)
8 | N5S + D9S + M13V + N17R: variant of Plectasin (SEQ ID NO: 1) (GFGCSGPWSEDDVQCHRHCKSIKGYKGGYCAKGGFVCKCY) |  | 2 micrograms/mL | 3 (<50% of Plectasin wildtype MIC) | 3 (<50% of Plectasin wildtype MIC) | 3 (<50% of Plectasin wildtype MIC) | 3 (<50% of Plectasin wildtype MIC) | 3 (<50% of Plectasin wildtype MIC)
9 | GFGCNGPWDEDDMRCHNHCRSIKGYKGGYCAKGGFVCKCY [Q14R + K20R] | 2 | 3 micrograms/mL | 3 (<50% of Plectasin wildtype MIC) | 3 (<50% of Plectasin wildtype MIC) | 3 (<50% of Plectasin wildtype MIC) | 3 (<50% of Plectasin wildtype MIC) | 3 (<50% of Plectasin wildtype MIC)
10 | D9S + Q14K + V36L: variant of Plectasin (SEQ ID NO: 1) (GFGCNGPWSEDDMKCHNHCKSIKGYKGGYCAKGGFLCKCY) |  | 1 micrograms/mL | 3 (<50% of Plectasin wildtype MIC) | 3 (<50% of Plectasin wildtype MIC) | 3 (<50% of Plectasin wildtype MIC) | 3 (<50% of Plectasin wildtype MIC) | 3 (<50% of Plectasin wildtype MIC)
11 | N5R + M13Y + N17R: variant of Plectasin (SEQ ID NO: 1) (GFGCRGPWDEDDYQCHRHCKSIKGYKGGYCAKGGFVCKCY) |  | 1 micrograms/mL | 3 (<50% of Plectasin wildtype MIC) | 3 (<50% of Plectasin wildtype MIC) | 3 (<50% of Plectasin wildtype MIC) | 3 (<50% of Plectasin wildtype MIC) | 3 (<50% of Plectasin wildtype MIC)
12 | N5G + D9S + M13L + N17Q + A31T: variant of Plectasin (SEQ ID NO: 1) (GFGCGGPWSEDDLQCHQHCKSIKGYKGGYCTKGGFVCKCY) |  | 3 micrograms/mL | 3 (<50% of Plectasin wildtype MIC) | 3 (<50% of Plectasin wildtype MIC) | 3 (<50% of Plectasin wildtype MIC) | 3 (<50% of Plectasin wildtype MIC) | 3 (<50% of Plectasin wildtype MIC)
13 | GFGCRGPWDEDDMQCHNHCKSIKGYKGGYCAKGGFVCKCY [Mutation N5R] | 3 | 8 micrograms/mL | 1 (80-100% of Plectasin wildtype MIC) | 2 (50-80% of Plectasin wildtype MIC) | 2 (50-80% of Plectasin wildtype MIC) | 2 (50-80% of Plectasin wildtype MIC) | 2 (50-80% of Plectasin wildtype MIC)
14 | M13Y + Q14K + K26R: variant of Plectasin (SEQ ID NO: 1) (GFGCNGPWDEDDYKCHNHCKSIKGYRGGYCAKGGFVCKCY) |  | 5 micrograms/mL | 2 (50-80% of Plectasin wildtype MIC) | 3 (<50% of Plectasin wildtype MIC) | 3 (<50% of Plectasin wildtype MIC) | 3 (<50% of Plectasin wildtype MIC) | 3 (<50% of Plectasin wildtype MIC)
15 | D9S + Q14L + K26R: variant of Plectasin (SEQ ID NO: 1) (GFGCNGPWSEDDMLCHNHCKSIKGYRGGYCAKGGFVCKCY) |  | 3 micrograms/mL | 3 (<50% of Plectasin wildtype MIC) | 3 (<50% of Plectasin wildtype MIC) | 3 (<50% of Plectasin wildtype MIC) | 3 (<50% of Plectasin wildtype MIC) | 3 (<50% of Plectasin wildtype MIC)
16 | GFGCNGPWDEGDMQCHNHCKSIKGYKGGYCARGGFVCKCY [D11G + K32R] | 3 | 5 micrograms/mL | 1 (80-100% of Plectasin wildtype MIC) | 2 (50-80% of Plectasin wildtype MIC) | 3 (<50% of Plectasin wildtype MIC) | 3 (<50% of Plectasin wildtype MIC) | 3 (<50% of Plectasin wildtype MIC)
